Measured values as given in patent US20230181905A1, “Systems, Devices, and Methods for Enhancing the Neuroprotective Effects of Non-Invasive Gamma Stimulation with Pharmacological Agents” (Massachusetts Institute of Technology, priority 2021, published 2023).

System: amyloid
Assay: Amyloid immunohistochemistry in APP.PS1 mice
Type: in vivo, mouse
Conditions: 11-month-old APP.PS1 mice
Method: 11-month-old APP.PS1 mice were either a) untreated as control, b) treated with GENUS alone (40 Hz light flicker delivered for 1 hour/day for 30 days), or c) a combination of GENUS (40 Hz delivered for 1 hour/day for 30 days) and levetiracetam (10 mg/kg body weight, intraperitoneal injection daily for 30 days), an agent shown to offer benefits in AD model mice. After the treatment mice were transcardially perfused with ice cold phosphate buffered saline (PBS) followed by 4% paraformaldehyde in PBS. Forty micron brain slices were prepared, and immunohistochemistry was then performed to evaluate the amyloid levels.

CC[C@@H](C(N)=O)N1CCCC1=O [levetiracetam]
amyloid levels in the visual cortex relative to treatment with GENUS alone (levetiracetam 10 mg/kg i.p. daily 30 days co-administered with GENUS): higher | effect of GENUS on amyloid levels (levetiracetam 10 mg/kg i.p. daily 30 days co-administered with GENUS 1 hour/day): dampened or attenuated
